The text below walks through data of ChEMBL document CHEMBL1152959, “Design, synthesis and dopamine D4 receptor binding activities of new N-heteroaromatic 5/6-ring Mannich bases” (Bioorg Med Chem, 2009).

Assay [1] has as its target D(1A) dopamine receptor (Sus scrofa) (UniProt P50130). Put plainly: Displacement of [3H]SCH23390 from pig dopamine D1 receptor at 100 nM. Background: In a radioligand displacement assay an active substance lowers the binding of a labelled ligand.
The target in assay [2] is T1, D(2) dopamine receptor (Homo sapiens, UniProt P14416). The assay is described as follows: biochemical.
T1 sequence (P14416 whole entry): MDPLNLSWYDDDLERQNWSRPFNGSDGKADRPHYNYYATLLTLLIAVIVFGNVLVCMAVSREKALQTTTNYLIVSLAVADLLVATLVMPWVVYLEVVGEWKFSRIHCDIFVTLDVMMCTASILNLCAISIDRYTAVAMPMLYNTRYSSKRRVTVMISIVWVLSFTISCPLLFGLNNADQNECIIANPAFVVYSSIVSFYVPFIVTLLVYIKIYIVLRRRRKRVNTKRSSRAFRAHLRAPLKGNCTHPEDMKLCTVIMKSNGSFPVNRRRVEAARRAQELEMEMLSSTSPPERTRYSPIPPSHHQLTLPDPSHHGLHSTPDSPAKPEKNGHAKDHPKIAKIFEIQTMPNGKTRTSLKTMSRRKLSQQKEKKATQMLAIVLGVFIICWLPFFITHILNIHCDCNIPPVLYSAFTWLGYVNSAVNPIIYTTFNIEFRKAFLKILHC
Description: Displacement of [3H]SCH23390 from human cloned dopamine D2 long receptor expressed in CHO cells
The target in assay [3] is T1, D(2) dopamine receptor. Put plainly: Displacement of [3H]spiperone from human cloned dopamine D2 long receptor expressed in CHO cells at 100 nM. It is filed as cell-based.
For the next assay, the target named is D(3) dopamine receptor (Homo sapiens, UniProt P35462). The assay is described as follows: biochemical.
Sequence of D(3) dopamine receptor (P35462 whole entry): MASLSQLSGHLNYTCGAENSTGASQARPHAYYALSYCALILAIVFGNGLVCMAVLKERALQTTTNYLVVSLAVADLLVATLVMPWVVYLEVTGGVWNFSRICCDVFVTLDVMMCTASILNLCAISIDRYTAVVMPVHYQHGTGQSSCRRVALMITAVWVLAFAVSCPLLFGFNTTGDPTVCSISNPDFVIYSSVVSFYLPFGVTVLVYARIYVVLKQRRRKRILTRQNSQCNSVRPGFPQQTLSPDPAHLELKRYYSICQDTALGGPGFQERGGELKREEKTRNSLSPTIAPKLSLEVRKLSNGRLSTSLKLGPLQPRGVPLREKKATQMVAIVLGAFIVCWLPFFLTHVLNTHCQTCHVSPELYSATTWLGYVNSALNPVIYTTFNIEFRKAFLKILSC
The next assay concerns the target D(1A) dopamine receptor (Bos taurus, UniProt Q95136).
A further assay has as its target T2, D(4) dopamine receptor (Homo sapiens, UniProt P21917).
T2 sequence (P21917 whole entry): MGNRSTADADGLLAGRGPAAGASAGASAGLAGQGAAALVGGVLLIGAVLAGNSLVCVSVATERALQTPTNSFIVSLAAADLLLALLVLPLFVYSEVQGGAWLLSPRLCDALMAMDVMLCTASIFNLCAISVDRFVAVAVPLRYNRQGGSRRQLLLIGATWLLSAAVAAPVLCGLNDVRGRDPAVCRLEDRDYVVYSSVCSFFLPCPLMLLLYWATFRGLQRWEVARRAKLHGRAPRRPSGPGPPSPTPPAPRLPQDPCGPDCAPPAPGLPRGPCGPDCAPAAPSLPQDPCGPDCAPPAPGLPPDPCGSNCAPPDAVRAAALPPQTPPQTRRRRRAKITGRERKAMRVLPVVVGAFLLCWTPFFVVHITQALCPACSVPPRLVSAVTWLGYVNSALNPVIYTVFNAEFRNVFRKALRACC
The assay is described as follows: Displacement of [3H]spiroperidol from human cloned dopamine D4.4 receptor expressed in CHO cells. It counts as cell-based.

The target of assay [4] is T3, D(4) dopamine receptor (Homo sapiens) (UniProt P21917).
T3 sequence (whole entry): T2 sequence (P21917 whole entry)
Put plainly: Displacement of [3H]spiperone from human cloned dopamine D4.4 receptor expressed in CHO cells at 100 nM. It counts as cell-based.

Assay [5] deals with T1, D(2) dopamine receptor. Put plainly: biochemical. The source holds these as a separate data set.
Description: Displacement of [3H]spiroperidol from human cloned dopamine D2 short receptor expressed in CHO cells

Sequence of D(1A) dopamine receptor (Sus scrofa) (P50130 whole entry): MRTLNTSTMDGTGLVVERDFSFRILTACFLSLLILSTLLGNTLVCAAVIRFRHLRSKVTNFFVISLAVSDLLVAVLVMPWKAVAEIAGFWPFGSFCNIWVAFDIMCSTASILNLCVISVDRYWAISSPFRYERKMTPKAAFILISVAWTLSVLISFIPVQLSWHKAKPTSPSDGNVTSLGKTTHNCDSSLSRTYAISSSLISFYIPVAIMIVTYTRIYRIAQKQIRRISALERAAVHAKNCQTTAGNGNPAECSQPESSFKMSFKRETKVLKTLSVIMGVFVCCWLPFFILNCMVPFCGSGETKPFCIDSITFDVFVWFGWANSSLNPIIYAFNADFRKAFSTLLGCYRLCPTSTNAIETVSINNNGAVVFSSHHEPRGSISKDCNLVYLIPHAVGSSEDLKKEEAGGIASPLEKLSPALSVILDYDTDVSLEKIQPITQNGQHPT
Sequence of D(1A) dopamine receptor (Q95136 whole entry): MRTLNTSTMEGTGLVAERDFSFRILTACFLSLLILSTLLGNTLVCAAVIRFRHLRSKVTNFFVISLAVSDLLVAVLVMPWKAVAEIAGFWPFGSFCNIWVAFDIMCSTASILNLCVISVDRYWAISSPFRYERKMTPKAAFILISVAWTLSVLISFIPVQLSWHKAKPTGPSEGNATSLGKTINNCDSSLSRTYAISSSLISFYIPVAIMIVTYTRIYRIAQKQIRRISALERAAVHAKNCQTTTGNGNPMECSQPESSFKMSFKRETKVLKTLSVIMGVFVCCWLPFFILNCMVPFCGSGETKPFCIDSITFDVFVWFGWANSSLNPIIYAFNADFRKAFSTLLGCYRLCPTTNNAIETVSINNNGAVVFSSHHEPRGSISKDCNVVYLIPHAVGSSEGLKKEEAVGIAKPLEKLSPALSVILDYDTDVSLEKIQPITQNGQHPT
Description for D(3) dopamine receptor: Displacement of [3H]spiroperidol from human cloned dopamine D3 receptor expressed in CHO cells

In general, Ki refers to a dissociation constant, usually derived from enzyme kinetics or from competition with a known ligand. A high value points to weaker binding. On to `COc1ccccc1N1CCN(Cc2c(C)nc3cc(C)ncn23)CC1`, for which the Activity in assay [1] was 0%; at D(2) dopamine receptor [3], 0%; in assay [4], 20%. Further, the inhibition constant Ki at D(2) dopamine receptor [2] was determined as 40 µM; at D(3) dopamine receptor, 67 µM; on D(1A) dopamine receptor, 59 µM; on D(4) dopamine receptor, 0.039 µM; on D(2) dopamine receptor [5] it was 53 µM.
Regarding `COc1ccccc1N1CCN(Cc2c(C)nc3cc(C)nc(C)n23)CC1`, the Activity in assay [1] is 0%; at D(2) dopamine receptor [3] it was 0%; in assay [4], 60%. The Ki at D(2) dopamine receptor [2] came to 2.3 µM; at D(3) dopamine receptor it was 3.4 µM; at D(1A) dopamine receptor it was 8.4 µM; at D(4) dopamine receptor, 0.014 µM; at D(2) dopamine receptor [5] it was 2.9 µM.
For `COc1ccc(N2CCN(Cc3c(C)nc4cc(C)ncn34)CC2)cc1`, the Activity in assay [1] was 0%; on D(2) dopamine receptor [3] it was 0%; in assay [4] it was 60%. The inhibitory constant (Ki) on D(2) dopamine receptor [2] came to 9.1 µM; on D(3) dopamine receptor, 13 µM; at D(1A) dopamine receptor, 27 µM; at D(4) dopamine receptor, 0.012 µM; on D(2) dopamine receptor [5], 13 µM.
Take `COc1ccccc1N1CCN(Cc2c(C)[nH]c3nc(N(C)C)ncc23)CC1`: the values for the Activity (in assay [1]; on D(2) dopamine receptor [3]; in assay [4]) were 0%, 20% and 80%, respectively. The Ki at D(2) dopamine receptor [2] was found to be 2.6 µM; on D(3) dopamine receptor, 6.1 µM; at D(1A) dopamine receptor, 6.8 µM; at D(4) dopamine receptor it was 0.0064 µM; at D(2) dopamine receptor [5] it was 2.9 µM.
For `COc1ccccc1N1CCN(Cc2cc3c(=O)[nH]c(N(C)C)nc3[nH]2)CC1`, the Activity in assay [1] amounted to 20%; at D(2) dopamine receptor [3], 20%; in assay [4], 60%. Moreover, the Ki was found to be 0.13 µM at D(2) dopamine receptor [2]; 0.96 µM on D(3) dopamine receptor; 8.4 µM at D(1A) dopamine receptor; 0.0024 µM on D(4) dopamine receptor; 0.17 µM on D(2) dopamine receptor [5].
